The values below come from patent US9018391B2, “Inhibitors of beta-secretase” (Boehringer Ingelheim International GmbH, priority 2012, dated 2015).

The nature of data set [1]: In Vitro Phospholipidosis Assay (Assay 3), Nile red staining. Type of data set: cell-based, human. The settings on record: human, first effect concentration, U937 cells, read-out: Phospholipidosis FEC IC50 μM (assay 3). As for the experimental part:
In Vitro Phospholipidosis Assay (Assay 3)
The phospholipidogenic potential of test compounds was assayed using the human hematopoetic U937 cell line. The test principle was to analyze the phospholipid content by staining the cells with the fluorescent dye Nile red.
U937 cells were seeded into cell culture plates at 0.5×10^6 cells/mL in RPMI medium containing 10% FBS, 1% DMSO, and 0.005% gentamicin. The cells were cultivated with or without different concentrations of test compound for 48 h under standard culture conditions.
For harvesting, the cells were centrifuged at 130×g for 4 min and washed once with PBS. Then, 2×0.5 mL cell suspensions were prepared for non-fixed cell measurement (0.5 mL for propidium iodide (PI) viability measurement and 0.5 mL for Nile red measurement).
The remaining cells were fixed with 3.7% formaldehyde for 30 min. After a further centrifugation step, cells were resuspended with 1.3 mL Nile red working solution (1 μg/mL) and incubated for 5 min at rt. The cell suspension was washed twice with 3 mL PBS and centrifuged with 130×g for 4 min. The supernatant was discarded and the cells were resuspended with 0.5 mL PBS and kept for flow cytometry measurement.
For Nile red staining of the 0.5 mL non-fixed cell samples, 50 μL of a ready to use Nile red solution (10 μg/mL) were added per sample. Samples were kept on ice for 5 min. Thereafter, they were washed once with 4 mL PBS (4° C., 250×g for 8 min) and finally resuspended in 400 μL PBS and kept for flow cytometry measurement.
For the viability measurement, 12.5 μL of the ready to use PI solution (10 μg/mL) were added to the 0.5 mL non-fixed cell suspension. After 15 min of incubation on ice, the samples were measured by flow cytometry using a Coulter Epics XL/MCL flow cytometer.
The viability of the cells of each sample was determined by flow cytometry measurement of the PI content at channel 2 (568-590 nm). Cut-off gates for the fluorescence-dependent differentiation between live and dead cells were defined based on the analysis of cell culture medium control samples.
Only samples with a cell viability of >=90% relative to control samples were analyzed for phospholipidosis. Each Nile red sample (non-fixed and fixed samples) was measured by flow cytometry at channel 1 (504-541 nm) and channel 4 (660-680 nm).
For each channel, relative Nile red fluorescence intensity of a test sample was calculated compared to control samples and expressed as a percentage of control fluorescence intensity. The assessment of the phospholipidogenic potential and the first effective concentration (FEC) of a test compound was done manually based on the fluorescence intensities at both wavelengths for the fixed cells, as well as for the non-fixed cells.

For a further data set, the system named is Human Hepatocytes. Nature of the data set: In Vitro Hepatocyte Stability Assay (Assay 4). It counts as in vitro ADME. The settings on record: predicted blood clearance as percent of hepatic blood flow. As for the experimental part: In Vitro Hepatocyte Stability Assay (Assay 4)
The metabolic degradation of test compounds was assayed in a hepatocyte suspension. Cryopreserved hepatocytes were incubated in an appropriate buffer system (e.g., Dulbecco's modified eagle medium plus 3.5 μg glucagon/500 mL, 2.5 mg insulin/500 mL and 3.75 mg/500 mL hydrocortison) containing 5% species serum. Following a 30 min preincubation in an incubator (37° C., 10% CO2), 5 μl of test compound solution (80 μM; from 2 mM in DMSO stock solution diluted 1:25 with medium) were added into 395 μl hepatocyte suspension (cell density in the range 0.25−5×10^6 cells/mL, typically 1×10^6 cells/mL; final concentration of test compound final DMSO concentration […]).
The cells were incubated for six h (incubator, orbital shaker) and samples (25 μl) were taken at 0, 0.5, 1, 2, 4 and 6 h. Samples were transferred into acetonitrile and pelleted by centrifugation (5 min). The supernatant was transferred to a new 96 DeepWell™ plate, evaporated under nitrogen and resuspended. Decline of compound was analyzed by HPLC-MS/MS. CLint (in vitro hepatic intrinsic clearance) was calculated as follows: CLint=Dose/AUC=(C0/CD)/(AUD+Clast/k)×1000/60
C0: initial concentration in the incubation [μM];
CD: cell density of vital cells [cells/mL];
AUD: area under the data [μM×h];
Clast: concentration of last data point [μM];
k: slope of the regression line for compound decline [h^−1].
The calculated in vitro hepatic intrinsic clearance was scaled up to the intrinsic in vivo hepatic clearance (Clint in vivo) and used to predict hepatic in vivo blood clearance (CL) by the use of a liver model (well-stirred model), as follows: CLint,in vivo[mL/min/kg]=(CLint[μL/min/10^6 cells]×hepatocellularity[10^6 cells/g liver]×liver factor [g/kg body weight])/1000 CL[mL/min/kg]=CLint,to vivo×hepatic blood flow[ml/min/kg]/(CLint,in vivo[ml/min/kg]+hepatic blood flow[mL/min/kg])
The in vivo blood clearance was transformed into percent of the hepatic blood flow (% Qh): % Qh=CL[mL/min/kg]/hepatic blood flow[mL/min/kg])×100
Hepatocellularity, human: 1.2×10^7 cells/g liver;
Liver factor, human: 25.7 g/kg body weight;
Hepatic blood flow, human: 21 mL/(min×kg).

Data set [2] has as its system brain amyloid peptides Aβ1-x. Nature of the data set: Rat Brain Aβ Lowering Assay (Assay 5). It counts as in vivo. The settings on record: 3 hrs after dosing. On the procedure: Rat Brain Aβ Lowering Assay (Assay 5)
The animals were sacrificed 3 hrs after dosing, and brains were excised, dissected into cerebellum and left and right cerebra and flash-frozen in liquid nitrogen.
The cerebrum was homogenized (5 volumes per weight) in 20 mM Tris-HCL, pH 8.5, 0.2% Triton-X100 supplemented with protease inhibitors (cOmplete, Roche Applied Science) at 4° C. using a glass Dounce homogenizer. The homogenate was centrifuged at 120,000×g for 60 min at 4° C., and the supernatant was collected and analyzed for […] using immunoassay with chemiluminescent detection (Meso-Scale Discovery, Rockville, Md. (MSD)).
Streptavidin 96-well plates (MSD) were pre-blocked with 5% Blocker A solution (MSD) for 1 hr at rt on an orbital shaker and washed 4 times with phosphate buffered saline (PBS). The wells were pre-coated with 20 ng/well of biotinylated antibody SIG-39155 (Clone M3.2, specific for amino acids 10-15 of the rodent Aβ) for 1 hr at rt and washed 4 times with PBS. For Aβ1-x analysis, 25 μl of either the cleared brain lysates or Aβ1-40 standards (8-500 pg/ml, with 2× increment) were incubated for 1 hr at rt with constant shaking. The wells were washed 4 times with PBS, and 25 μl of the detection antibody (Sulfo-TAG labeled anti-Aβ40 antibody supplied by MSD) was added and incubated for 1 hr at rt. After 4 washes with PBS, 150 μl of the chemiluminescence detection reagent (Read Buffer T, MSD) was added, and the plate was read on an MSD Sector Imager 6000 instrument. The calibration curve was fit into a non-linear four-parameter regression model, and the Aβ1-x concentrations were calculated for each well containing the cleared brain lysates. The percent of Aβ lowering was calculated based on the difference with the average Aβ concentration obtained for the brains from the animals treated with vehicle alone.

Broadly, the IC50 is the concentration that gives 50% inhibition. `C[C@@H]1C[C@@]2(Cc3ccc(C#N)cc3[C@]23N=C(N)N(CCC(F)(F)F)C3=O)C[C@H](C)[C@H]1O` [Example 1]: in data set [1], the IC50 at 48 h was found to be 400 µM. The “In vitro Human Hepatocytes % Qh @ 1 μM (assay 4)” value with Human Hepatocytes was 0 % Qh. For the same compound, the “% Aβ Reduction” value in data set [2] (single oral dose 25 mg/kg) turned out to be 25%.
Consider `C[C@@H]1C[C@@]2(Cc3ccc(C#N)cc3[C@]23N=C(N)N(CC(C)(C)F)C3=O)C[C@H](C)[C@H]1O` [Example 2], for which the IC50 at 48 h in data set [1] turned out to be 400 µM. Besides, in the data set on Human Hepatocytes, the “In vitro Human Hepatocytes % Qh @ 1 μM (assay 4)” value is listed as 1.6 % Qh. The “% Aβ Reduction” value in data set [2] (single oral dose 12.5 mg/kg) is reported as 40%.
The like results for `C[C@@H]1C[C@@]2(Cc3ccc(C#N)cc3[C@]23N=C(N)N(CC2(F)CCOCC2)C3=O)C[C@H](C)[C@H]1O` [Example 4] were, in that order, 800 µM, 6.1 % Qh and 21%.
On to `CC[C@@H]1C[C@@]2(Cc3ccc(C#N)cc3[C@]23N=C(N)N(CC(C)(C)F)C3=O)C[C@H](C)[C@H]1O` [Example 7], for which, in data set [1], the IC50 at 48 h was 400 µM. Moreover, in the data set with Human Hepatocytes, the “In vitro Human Hepatocytes % Qh @ 1 μM (assay 4)” value is reported as 13 % Qh. Moreover, in data set [2] (single oral dose 25 mg/kg), the “% Aβ Reduction” value turned out to be 58%.
The corresponding values for `CC[C@@H]1C[C@]2(CC[C@H]1O)Cc1ccc(C#N)cc1[C@]21N=C(N)N(CC(C)(C)F)C1=O` [Example 9] are 400 µM, 12.4 % Qh and 42%.
